In article PMC10287695, “Non-covalent inhibitors of thioredoxin glutathione reductase with schistosomicidal activity in vivo” (Nature Communications, 2023):
Values joined by “and” are separate entries in the source; they are usually repeats but may differ in a detail not shown here. Equal entries are not always repeated. Marks after values point to notes of the source that are not given here.

Tests used:
[1] = Cytotoxicity in mammalian cells (Cell Titer Glo); type: cell-based; details: African green monkey, Vero cells; for viability at 24 h, 5 µM: Conc. 5 µM; for viability at 24 h, 10 µM: Conc. 10 µM; for viability at 24 h, 25 µM: Conc. 25 µM; for viability at 24 h, 50 µM: Conc. 50 µM
Protocol: Following overnight incubation, formulated DMSO-compound stock solutions were diluted with DMEM at <1% DMSO final concentrations. […] Vero cells treated similarly with different concentrations of PZQ, MZM and AF (Cayman Chemicals) were used as positive controls.

[2] = test system: S. mansoni juvenile worms (21 days); test: Schistosomicidal activity ex vivo, juvenile worms (21 days); type: cell-based; details: for viability at 5 µM / viability at 15 µM / viability at 30 µM: Schistosoma mansoni, 23 day S. mansoni worms, 48 HR; for viability at 5 µM: Conc. 5 µM; for viability at 15 µM: Conc. 15 µM; for viability at 30 µM: Conc. 30 µM; for LD50 ex vivo S. mansoni 21 days: juvenile worms, 48 h exposure
Protocol: Three-week old, female Swiss-Webster mice obtained from the Charles River were housed in the Comparative Research Center of Rush University Medical Center. Mice were infected by percutaneous tail exposure to about 200 S. mansoni or 50 S. japonicum cercaria for adult worms and about 1000 cercaria for juvenile S. mansoni worms through natural transdermal penetration of the cercariae for 1 h[81].
DMSO formulated compounds were diluted with phenol red free M199 medium or RPMI medium for NTS or juvenile and adult worms, respectively, at <1% DMSO final concentrations. NTS, juvenile and adult worms from overnight cultures were tested against compounds in triplicate. Controls were treated with DMSO alone or 5 µM AF as a positive control in appropriate medium. […] Schistosome viabilities in the presence of the compounds were assessed using this formula: % Viability = Averages of Test / Averages of DMSO Control x 100.

TGR [3] = target: T1, TGR (Schistosoma mansoni, UniProt Q962Y6); test: Time dependence of inhibition; type: biochemical; details: panel c, replicates; for TGR activity relative to dmso, time 0: time 0 (time unit not given); for TGR activity relative to dmso, time 5: time 5 (time unit not given); for TGR activity relative to dmso, time 10: time 10 (time unit not given); for TGR activity relative to dmso, time 15: time 15 (time unit not given); for TGR activity relative to dmso, time 30: time 30 (time unit not given)
T1 construct: made in house
T1 sequence (Q962Y6 1-598): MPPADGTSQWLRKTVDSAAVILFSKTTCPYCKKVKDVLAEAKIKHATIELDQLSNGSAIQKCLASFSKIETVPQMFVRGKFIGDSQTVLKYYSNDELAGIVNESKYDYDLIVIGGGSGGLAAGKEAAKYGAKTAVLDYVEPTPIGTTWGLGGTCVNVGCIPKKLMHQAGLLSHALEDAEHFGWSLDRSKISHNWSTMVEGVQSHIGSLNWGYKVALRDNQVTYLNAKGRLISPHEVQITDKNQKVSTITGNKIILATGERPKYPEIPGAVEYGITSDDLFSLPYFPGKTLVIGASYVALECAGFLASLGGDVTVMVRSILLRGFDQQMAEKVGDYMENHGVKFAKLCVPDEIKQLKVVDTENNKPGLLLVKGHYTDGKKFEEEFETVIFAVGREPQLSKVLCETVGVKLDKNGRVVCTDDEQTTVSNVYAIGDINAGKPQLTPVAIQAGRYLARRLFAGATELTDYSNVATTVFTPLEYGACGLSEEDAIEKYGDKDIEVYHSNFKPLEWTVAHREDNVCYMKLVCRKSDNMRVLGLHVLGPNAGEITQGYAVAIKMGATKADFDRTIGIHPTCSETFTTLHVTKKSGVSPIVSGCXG
Protocol: TGR was incubated at room temperature (up to 6 h) and at 4 °C for 6 to 24 h with 50 µM inhibitor and 100 µM NADPH for the indicated times. Then DTNB (3 mM) and NADPH (100 µM) were added, and the reaction was monitored at A412 for 5 min. The assay was done in triplicate.

TGR [4] = target: T1, TGR; test: Reversibility by jump dilution; type: biochemical; details: for % Activity (ID list), D0 / % Inhibition (ID list), D0: D0: diluted 1:100, activity determined immediately; for % Activity (ID list), D60 / % Inhibition (ID list), D60: D60: diluted 1:100, activity determined after 60 min; for Inhibitor (rate), 0 min / % Activity, 0 min: [0, D0]: 15 min preincubation inhibitor + TGR + NADPH, diluted 1:100, then activity determined immediately; for Inhibitor (rate), 0 min / Inhibitor (rate), 60 min / Inhibitor (rate), -15: raw rate; for % Activity, 0 min / % Activity, 60 min / % Activity, -15: relative to DMSO; for Inhibitor (rate), 60 min / % Activity, 60 min: [60, D60]: 15 min preincubation inhibitor + TGR + NADPH, diluted 1:100, then activity determined after 60 min; for Inhibitor (rate), -15 / % Activity, -15: [-15]: 15 min preincubation inhibitor + TGR + NADPH, then activity determined, replicates
Protocol: A reaction of 370 nM TGR, 100 µM NADPH, and 250 µM inhibitor was incubated for 15 min at room temperature. A 100x dilution of the reaction was made and the activity was determined immediately and after 60 min.

[5] = before dilution (-15), list for plotting

Cc1oc(C2CCCCC2)nc1C(=O)N[C@@H]1C[C@@H]2C[C@H]([C@H]1C)C2(C)C [Compound 7]
viability at 24 h, 5 µM [1]: 92%
viability at 24 h, 10 µM [1]: 91.8%
viability at 24 h, 25 µM [1]: 89.5%
viability at 24 h, 35 µM ([1]; Conc. 35 µM): 85.8%
viability at 24 h, 50 µM [1]: 83.6%
viability at 5 µM [2]: 77.6%
viability at 15 µM [2]: 63.5%
viability at 30 µM [2]: 58.7%
LD50 ex vivo S. mansoni 21 days [2]: >30^a µM
TGR activity relative to dmso, time 0 (TGR [3]): 10.9848 and 15.3969 and 9.648
TGR activity relative to dmso, time 5 (TGR [3]): 3.59 and 2.532 and 3.143
TGR activity relative to dmso, time 10 (TGR [3]): 6.629 and 6.846 and 6.371
TGR activity relative to dmso, time 15 (TGR [3]): 7.462 and 7.906 and 7.375
TGR activity relative to dmso, time 30 (TGR [3]): 9.0362 and 7.137 and 8.678
% Activity (ID list), D0 (TGR [4]; list for plotting): 98.5% and 102.6% and 100.0%
% Inhibition (ID list), D0 (TGR [4]; list for plotting): 1.5% and -2.6%
% Activity (ID list), D60 (TGR [4]; list for plotting): 100.2% and 98.4% and 96.1%
% Inhibition (ID list), D60 (TGR [4]; list for plotting): -0.17% and 1.6% and 3.9%
Inhibitor (rate), 0 min (TGR [4]): 0.04944 and 0.05279
% Activity, 0 min (TGR [4]): 98.4664% and 102.604%
Inhibitor (rate), 60 min (TGR [4]): 0.04706 and 0.04925 and 0.04684
% Activity, 60 min (TGR [4]): 100.17% and 98.4213% and 96.1018%
Inhibitor (rate), -15 (TGR [4]): 0.001091 and 8.088e-5 and -1.437e-5
% Activity, -15 (TGR [4]): 2.42% and 0.1757%
% Activity (ID list) (TGR [4]; [5]): 2.4% and 0.2% and -0.3%
% Inhibition (ID list) (TGR [4]; [5]): 97.6% and 99.8% and 100.3%

C[C@@H]1[C@H]2C[C@@H](C[C@H]1NCc1nc3ccccc3n1C1CCCCCC1)C2(C)C [Compound 8]
viability at 24 h, 1 µM ([1]; Conc. 1 µM): 97%
viability at 24 h, 5 µM [1]: 93.8%
viability at 24 h, 10 µM [1]: 88.6%
viability at 24 h, 25 µM [1]: 69.7%
viability at 24 h, 50 µM [1]: 44.6%
viability at 24 h, 100 µM ([1]; Conc. 100 µM): 4.99%
viability at 5 µM [2]: 83.5%
viability at 15 µM [2]: 66%
viability at 30 µM [2]: 57.2%
LD50 ex vivo S. mansoni 21 days [2]: >30^a µM
TGR activity relative to dmso, time 0 (TGR [3]): 81.9258 and 91.2824 and 94.0371
TGR activity relative to dmso, time 5 (TGR [3]): 16.4661 and 22.6942 and 32.7859
TGR activity relative to dmso, time 10 (TGR [3]): 10.3137 and 9.575 and 9.146
TGR activity relative to dmso, time 15 (TGR [3]): 4.106 and 4.258 and 6.77
TGR activity relative to dmso, time 30 (TGR [3]): 0.4436 and 0.7059 and 0.3756
% Activity (ID list), D0 (TGR [4]; list for plotting): 90.8% and 93.4% and 92.5%
% Inhibition (ID list), D0 (TGR [4]; list for plotting): 9.2% and 6.6% and 7.5%
% Activity (ID list), D60 (TGR [4]; list for plotting): 93.9% and 90.9% and 93.8%
% Inhibition (ID list), D60 (TGR [4]; list for plotting): 6.1% and 9.1% and 6.2%
Inhibitor (rate), 0 min (TGR [4]): 0.05404 and 0.05709 and 0.05725
% Activity, 0 min (TGR [4]): 90.8083% and 93.3911% and 92.5327%
Inhibitor (rate), 60 min (TGR [4]): 0.05102 and 0.05246 and 0.05311
% Activity, 60 min (TGR [4]): 93.9422% and 90.9343% and 93.8339%
Inhibitor (rate), -15 (TGR [4]): 0.005946 and 0.01664 and 0.01823
% Activity, -15 (TGR [4]): 12.3643% and 34.0704% and 37.3107%
% Inhibition (ID list) (TGR [4]; [5]): 77.7% and 75.9% and 68.7%
